In patent US20230140430A1, “1H-PYRAZOLO[4,3-d]PYRIMIDINE COMPOUNDS AS TOLL-LIKE RECEPTOR 7 (TLR7) AGONISTS” (BRISTOL-MYERS SQUIBB COMPANY, priority 2020, published 2023):
pEC50: −log10 of the molar value. Where two headings read alike, the source gives them in different places.

Columns and labels:
[1] = biological target: T1, human TLR7 (Homo sapiens, UniProt Q9NYK1); assay: Human TLR7 agonist activity assay (HEK-Blue TLR7 SEAP reporter); type: cell-based; conditions: HEK-Blue TLR7 cells, 18 h treatment, average where assay was performed multiple times, read-out: hTLR7 Agonism EC50
T1 construct: host or cells: HEK-Blue TLR7 cells (engineered human embryonic kidney cells)
T1 sequence (Q9NYK1 27-1049): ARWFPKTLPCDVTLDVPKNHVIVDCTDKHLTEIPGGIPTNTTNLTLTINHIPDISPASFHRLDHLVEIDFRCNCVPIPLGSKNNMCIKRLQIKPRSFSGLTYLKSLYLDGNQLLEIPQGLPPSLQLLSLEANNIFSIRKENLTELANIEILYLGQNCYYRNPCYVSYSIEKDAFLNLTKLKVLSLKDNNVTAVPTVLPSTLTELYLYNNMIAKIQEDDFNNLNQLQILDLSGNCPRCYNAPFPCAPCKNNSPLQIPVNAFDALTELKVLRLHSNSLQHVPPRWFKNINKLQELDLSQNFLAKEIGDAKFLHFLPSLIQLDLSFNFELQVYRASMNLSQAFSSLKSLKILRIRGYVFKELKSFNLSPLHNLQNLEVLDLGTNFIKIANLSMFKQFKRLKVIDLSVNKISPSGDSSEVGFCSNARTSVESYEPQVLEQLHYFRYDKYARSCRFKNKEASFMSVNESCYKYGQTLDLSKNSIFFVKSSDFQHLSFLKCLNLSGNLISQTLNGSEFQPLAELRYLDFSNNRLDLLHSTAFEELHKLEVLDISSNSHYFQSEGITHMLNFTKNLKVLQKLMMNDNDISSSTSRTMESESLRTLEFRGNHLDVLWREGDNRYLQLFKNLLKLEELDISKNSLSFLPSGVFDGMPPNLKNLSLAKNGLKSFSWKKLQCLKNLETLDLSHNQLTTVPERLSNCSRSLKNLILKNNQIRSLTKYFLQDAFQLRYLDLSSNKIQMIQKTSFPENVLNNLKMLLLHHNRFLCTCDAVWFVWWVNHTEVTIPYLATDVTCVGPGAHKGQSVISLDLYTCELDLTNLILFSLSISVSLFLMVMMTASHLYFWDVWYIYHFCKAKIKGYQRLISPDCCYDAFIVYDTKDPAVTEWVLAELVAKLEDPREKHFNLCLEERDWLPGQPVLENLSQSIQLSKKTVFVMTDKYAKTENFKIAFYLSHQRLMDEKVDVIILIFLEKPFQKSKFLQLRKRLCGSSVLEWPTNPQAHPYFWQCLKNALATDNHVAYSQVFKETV
Method: This procedure describes a method for assaying human TLR7 (hTLR7) agonist activity of the compounds disclosed in this specification.
HEK-Blue™ TLR7 cells were added to each well of a 384-well tissue-culture plate (15,000 cells per well) and incubated 16-18 h at 37° C., 5% CO2. Compounds (100 nl) were dispensed into wells containing the HEK-Blue™ TLR cells and the treated cells were incubated at 37° C., 5% CO2. After 18 h treatment ten microliters of freshly-prepared Quanti-Blue™ reagent (Invivogen) was added to each well, incubated for 30 min (37° C., 5% CO2) and SEAP levels measured using an Envision plate reader (OD=620 nm).

[2] = test system: CD69; assay: Induction of CD69 in human whole blood; type: cell-based; conditions: for pEC50: human whole blood, 17 hrs, CD69 surface staining, 100% set to 1 uM of resiquimod, average where assay was performed multiple times, read-out: hWB CD69 EC50; for EC50: Homo sapiens, 17 h, read-out: hWB CD69 EC50 (nM)
Method: The induction of Type I interferon (IFN) MX-1 genes and the B-cell activation marker CD69 are downstream events that occur upon activation of the TLR7 pathway. The following is a human whole blood assay that measures their induction in response to a TLR7 agonist.
Heparinized human whole blood was harvested from human subjects and treated with test TLR7 agonist compounds at 1 mM. The blood was diluted with RPMI 1640 media and Echo was used to predot 10 nL per well giving a final concentration of 1 uM (10 nL in 10 uL of blood). After mixing on a shaker for 30 sec, the plates were covered and placed in a 37° C. chamber for o/n=17 hrs. Fixing/lysis buffer was prepared (5×->1× in H2O, warm at 37° C.; Cat #BD 558049) and kept the perm buffer (on ice) for later use.
For surface markers staining (CD69): prepared surface Abs: 0.045 ul hCD14-FITC (ThermoFisher Cat #MHCD1401)+0.6 ul hCD19-ef450 (ThermoFisher Cat #48-0198-42)+1.5 ul hCD69-PE (cat #BD555531)+0.855 ul FACS buffer. Added 3 ul/well, spin1000 rpm for 1 min and mixed on shaker for 30 sec, put on ice for 30 mins. Stop stimulation after 30 min with 70 uL of prewarmed 1× fix/lysis buffer and use Feliex mate to resuspend (15 times, change tips for each plate) and incubate at 37 C for 10 min.
Centrifuge at 2000 rpm for 5 min aspirate with HCS plate washer, mix on shaker for 30 sec and then wash with 70 uL in dPBS and pelleted 2×s (2000 rpm for 5 min) and 50 ul wash in FACS buffer pelleted 1×s (2000 rpm for 5 min). Mix on shaker for 30 sec. For Intracellular markers staining (MX-1): Add 50 ul of BD Perm buffer III and mix on shaker for 30 sec. Incubate on ice for 30 minutes (in the dark). Wash with 50 uL of FACS buffer 2× (spin @2300 rpm×5 min after perm) followed by mixing on shaker for 30 sec. Resuspended in 20 ul of FACS buffer containing MX1 antibody ( )(4812)-Alexa 647: Novus Biologicals #NBP2-43704AF647) 20 ul FACS bf+0.8 ul hlgG+0.04 ul MX-1. Spin 1000 rpm for 1 min, mix on shaker for 30se and the samples were incubated at RT in the dark for 45 minutes followed by washing 2×FACS buffer (spin @2300 rpm×5 min after perm). Resuspend 20 ul (35 uL total per well) of FACS buffer and cover with foil and place in 4° C. to read the following day. Plates were read on iQuePlus. The results were loaded into toolset and […] curves are generated in curve master. The y-axis 100% is set to 1 uM of resiquimod.

Row | SMILES | pEC50 [1] | pEC50 [2] | EC50 [2]
1 | CCCCNc1nc(N)nc2cnn(Cc3ccc(C(=O)N4CCN(C)CC4)cc3OC)c12 [Compound 106, N7-butyl-1-{[2-methoxy-4-(4-methylpiperazine-1-carbonyl)phenyl]methyl}-1H-pyrazolo[4,3-d]pyrimidine-5,7-diamine] | 7.68 | 8.35 | 
2 | CCCCNc1nc(N)nc2cnn(Cc3ccc(C(=O)NC4CCN(C)CC4)cc3OC)c12 [Compound 114, 4-{[5-amino-7-(butylamino)-1H-pyrazolo[4,3-d]pyrimidin-1-yl]methyl}-3-methoxy-N-(1-methylpiperidin-4-yl)benzamide] | 7.16 |  | 24.4 nM
3 | CCCCNc1nc(N)nc2cnn(Cc3ccc(C(=O)N4CCC(CCO)CC4)cc3OC)c12 [Compound 116, 2-[1-(4-{[5-amino-7-(butylamino)-1H-pyrazolo[4,3-d]pyrimidin-1-yl]methyl}-3-methoxybenzoyl)piperidin-4-yl]ethan-1-ol] | 7.38 | 7.37 | 
4 | CCCCNc1nc(N)nc2cnn(Cc3ccc(C(=O)N4CCN(CCO)CC4)cc3OC3CC3)c12 [Compound 122, 2-[4-(4-{[5-amino-7-(butylamino)-1H-pyrazolo[4,3-d]pyrimidin-1-yl]methyl}-3-cyclopropoxybenzoyl)piperazin-1-yl]ethan-1-ol] | 5.92 | 6.47 | 
5 | CCC1CC(CNc2nc(N)nc3cnn(Cc4ccc(C(=O)NC5CCN(C)CC5)cc4OC)c23)C1 (stereo not shown) [Compound 124, 4-[(5-amino-7-{[(3-ethylcyclobutyl)methyl]amino}-1H-pyrazolo[4,3-d]pyrimidin-1-yl)methyl]-3-methoxy-N-(1-methylpiperidin-4-yl)benzamide] | 6.29 |  | 95.4 nM
6 | CCCCNc1nc(N)nc2cnn(Cc3ccc(C(=O)N4CCN(CCO)CC4)cc3OC)c12 [Compound 105, 2-[4-(4-{[5-amino-7-(butylamino)-1H-pyrazolo[4,3-d]pyrimidin-1-yl]methyl}-3-methoxybenzoyl)piperazin-1-yl]ethan-1-ol] | 7.49 | 7.49 | 
7 | CCCCNc1nc(N)nc2cnn(Cc3ccc(C(=O)N4CCN(CC(F)(F)F)CC4)cc3OC)c12 [Compound 108, N7-butyl-1-({2-methoxy-4-[4-(2,2,2-trifluoroethyl)piperazine-1-carbonyl]phenyl}methyl)-1H-pyrazolo[4,3-d]pyrimidine-5,7-diamine] | 6.22 | ≤ 6.00 | 
8 | CCCCNc1nc(N)nc2c(C)nn(Cc3ccc(C(=O)N4CCNC(=O)C4)cc3OC)c12 [Compound 119, 4-(4-{[5-amino-7-(butylamino)-3-methyl-1H-pyrazolo[4,3-d]pyrimidin-1-yl]methyl}-3-methoxybenzoyl)piperazin-2-one] | 6.01 | 6.48 | 
9 | CCC[C@@H](CO)Nc1nc(N)nc2cnn(Cc3ccc(C(=O)NC4CCN(C)CC4)cc3OC)c12 [Compound 126, 4-[(5-amino-7-{[(2S)-1-hydroxypentan-2-yl]amino}-1H-pyrazolo[4,3-d]pyrimidin-1-yl)methyl]-3-methoxy-N-(1-methylpiperidin-4-yl)benzamide] | 5.30 |  | 326 nM
10 | COc1cc(C(=O)N2CCN(C)CC2)ccc1Cn1ncc2nc(N)nc(NCc3cc(C)on3)c21 [Compound 130, 1-{[2-methoxy-4-(4-methylpiperazine-1-carbonyl)phenyl]methyl}-N7-[(5-methyl-1,2-oxazo1-3-yl)methyl]-1H-pyrazolo[4,3-d]pyrimidine-5,7-diamine] | 6.84 | 7.80 | 
11 | CCCCNc1nc(N)nc2cnn(Cc3ccc(C(=O)N4CCNC(=O)C4)cc3OC)c12 [Compound 115, 4-(4-{[5-amino-7-(butylamino)-1H-pyrazolo[4,3-d]pyrimidin-1-yl]methyl}-3-methoxybenzoyl)piperazin-2-one] | 6.42 | 6.65 | 
12 | CCC[C@@H](CCO)Nc1nc(N)nc2cnn(Cc3ccc(C(=O)NCC4CCNCC4)cc3OC)c12 [Compound 101, 4-[(5-amino-7-{[(3S)-1-hydroxyhexan-3-yl]amino}-1H-pyrazolo[4,3-d]pyrimidin-1-yl)methyl]-3-methoxy-N-[(piperidin-4-yl)methyl]benzamide] | 5.89 | ≤ 6.00 | 
13 | COc1cc(C(=O)N2CCN(C)CC2)ccc1Cn1ncc2nc(N)nc(NCc3noc(C)n3)c21 [Compound 132, 1-{[2-methoxy-4-(4-methylpiperazine-1-carbonyl)phenyl]methyl}-N7-[(5-methyl-1,2,4-oxadiazo1-3-yl)methyl]-1H-pyrazolo[4,3-d]pyrimidine-5,7-diamine] | 7.02 | 7.96 | 
14 | CCCCNc1nc(N)nc2cnn(Cc3ccc(C(=O)NC4CCN(C)CC4)cc3OC3CC3)c12 [Compound 121, 4-{[5-amino-7-(butylamino)-1H-pyrazolo[4,3-d]pyrimidin-1-yl]methyl}-3-cyclopropoxy-N-(1-methylpiperidin-4-yl)benzamide] | 6.30 |  | 99.1 nM
